Key:
[1] = tested on: Diabrotica balteata (Corn Root Worm); assay: Example B1: Activity against Diabrotica balteata (corn root worm), sprayed maize sprouts; type: in vivo; details: 96 h, application rate 200 ppm, L2 larvae on sprayed maize sprouts, 4 days after infestation, read-out: effect in at least one of the two categories (mortality or growth inhibition)
Procedure: Example B1: Activity Against Diabrotica balteata (Corn Root Worm)
Maize sprouts placed onto an agar layer in 24-well microtiter plates were treated with aqueous test solutions prepared from 10′000 ppm DMSO stock solutions by spraying. After drying, the plates were infested with L2 larvae (6 to 10 per well). The samples were assessed for mortality and growth inhibition in comparison to untreated samples 4 days after infestation.

[2] = tested on: Plutella xylostella (Diamond Back Moth); assay: Example B3: Activity against Plutella xylostella (diamond back moth), artificial diet; type: in vivo; details: 192 h, application rate 200 ppm, eggs on artificial diet, 8 days after infestation, read-out: effect in at least one of the two categories (mortality or growth inhibition)
Procedure: Example B3: Activity Against Plutella xylostella (Diamond Back Moth)
24-well microtiter plates with artificial diet were treated with aqueous test solutions prepared from 10′000 ppm DMSO stock solutions by pipetting. After drying, Plutella eggs were pipetted through a plastic stencil onto a gel blotting paper and the plate was closed with it. The samples were assessed for mortality and growth inhibition in comparison to untreated samples 8 days after infestation. The following compounds gave an effect of at least 80% in at least one of the two categories (mortality or growth inhibition) at an application rate of 200 ppm: P2, P4, P5, P6, P8, P9, P10, P11, P12, P14, P15, P16, P17, P18, P19, P20, P21, P22, P23, P24, P25, P26, P27, P28, P29, P30, P31, P32, P33, P34, P35, P36, P38, P39, P40, P42, P45, P46, P47, P49, P50, P51, P52.

[3] = tested on: Frankliniella occidentalis (Western Flower Thrips); assay: Example B8: Activity against Frankliniella occidentalis (western flower thrips); type: in vivo; details: foliar, 168 h, application rate 200 ppm, sprayed sunflower leaf discs, mixed ages, 7 days after infestation
Procedure: Example B8: Activity Against Frankliniella occidentalis (Western Flower Thrips)
Sunflower leaf discs were placed on agar in 24-well microtiter plates and sprayed with aqueous test solutions prepared from […] stock solutions. After drying the leaf discs were infested with a Frankliniella population of mixed ages. The samples were assessed for mortality 7 days after infestation.

[4] = tested on: Euschistus heros (Neotropical Brown Stink Bug); assay: Example B2: Activity against Euschistus heros (neotropical brown stink bug), sprayed soybean leaves; type: in vivo; details: 120 h, application rate 200 ppm, N2 nymphs on sprayed soybean leaves, 5 days after infestation, read-out: effect in at least one of the two categories (mortality or growth inhibition)
Procedure: Example B2: Activity Against Euschistus heros (Neotropical Brown Stink Bug)
Soybean leaves on agar in 24-well microtiter plates were sprayed with aqueous test solutions prepared from 10′000 ppm DMSO stock solutions. After drying the leaves were infested with N2 nymphs. The samples were assessed for mortality and growth inhibition in comparison to untreated samples 5 days after infestation.

[5] = tested on: Spodoptera littoralis (Egyptian Cotton Leaf Worm); assay: Example B6: Activity against Spodoptera littoralis (Egyptian cotton leaf worm); type: in vivo; details: foliar, 72 h, application rate 200 ppm, L1 larvae on sprayed cotton leaf discs, 3 days after infestation, read-out: control (mortality, anti-feeding effect or growth inhibition)
Procedure: Example B6: Activity Against Spodoptera littoralis (Egyptian Cotton Leaf Worm)
Cotton leaf discs were placed onto agar in 24-well microtiter plates and sprayed with aqueous test solutions prepared from 10′000 ppm DMSO stock solutions. After drying the leaf discs were infested with five L1 larvae. The samples were assessed for mortality, anti-feeding effect, and growth inhibition in comparison to untreated samples 3 days after infestation. Control of Spodoptera littoralis by a test sample is given when at least one of the categories mortality, anti-feedant effect, and growth inhibition is higher than the untreated sample.

[6] = tested on: Myzus persicae (Green Peach Aphid); assay: whole plant or invertebrate; type: in vivo; details: foliar, 144 h, application rate 200 ppm, sprayed sunflower leaf discs, mixed ages, 6 days after infestation
Procedure: Example B4: Activity Against Myzus persicae (Green Peach Aphid) Feeding/Contact Activity
Sunflower leaf discs were placed onto agar in a 24-well microtiter plate and sprayed with aqueous test solutions prepared from 10′000 ppm DMSO stock solutions. After drying, the leaf discs were infested with an aphid population of mixed ages. The samples were assessed for mortality 6 days after infestation.

[7] = tested on: Myzus persicae (Green Peach Aphid); assay: Example B5: Activity against Myzus persicae (green peach aphid), systemic activity; type: in vivo; details: 144 h, test rate 24 ppm, roots of pea seedlings in test solution, mixed ages, 6 days
Procedure: Example B5: Activity Against Myzus persicae (Green Peach Aphid) Systemic Activity
Roots of pea seedlings infested with an aphid population of mixed ages were placed directly into aqueous test solutions prepared from 10′000 DMSO stock solutions. The samples were assessed for mortality 6 days after placing seedlings into test solutions.

[8] = tested on: Bemisia tabaci (Cotton White Fly); assay: Example B7: Activity against Bemisia tabaci (cotton white fly); type: in vivo; details: foliar, 144 h, application rate 200 ppm, adult white flies on sprayed cotton leaf discs, 6 days after incubation
Procedure: Example B7: Activity Against Bemisia tabaci (Cotton White Fly)
Cotton leaf discs were placed on agar in 24-well microtiter plates and sprayed with aqueous test solutions prepared from 10′000 ppm DMSO stock solutions. After drying the leaf discs were infested with adult white flies. The samples were checked for mortality 6 days after incubation.

melting point [°C] | SMILES | percent effect (mortality or growth inhibition) at 200 ppm [1] [%] | percent effect (mortality or growth inhibition) at 200 ppm [2] [%] | mortality at 200 ppm [3] [%] | percent effect (mortality or growth inhibition) at 200 ppm [4] [%] | percent control (mortality, anti-feedant effect or growth inhibition) at 200 ppm [5] [%] | mortality at 200 ppm [6] [%] | mortality at 24 ppm [7] [%] | mortality at 200 ppm [8] [%]
 | CCSc1cc(C(C)(C)C#N)cnc1-c1cc2ncn(CC(F)(F)C(F)(F)F)c2cn1 [Compound P47, 2-[5-ethylsulfanyl-6-[3-(2,2,3,3,3-pentafluoropropyl)imidazo[4,5-c]pyridin-6-yl]-3-pyridyl]-2-methyl-propanenitrile] | ≥ 80 | ≥ 80 | ≥ 80 | ≥ 80 |  |  |  | 
 | CCS(=O)(=O)c1cccnc1-c1cc2cnn(CC(F)(F)C(F)(F)F)c2cn1 [Compound P4, 5-(3-ethylsulfonyl-2-pyridyl)-1-(2,2,3,3,3-pentafluoropropyl)pyrazolo[3,4-c]pyridine] | ≥ 80 | ≥ 80 |  | ≥ 80 | ≥ 80 | ≥ 80 | ≥ 80 | 
214 to 217 | CCS(=O)(=O)c1ccc(N(C)C(=O)NC)nc1-c1cc2ccn(CC(F)(F)C(F)(F)F)c2cn1 [Compound P13, 1-[5-ethylsulfonyl-6-[1-(2,2,3,3,3-pentafluoropropyl)pyrrolo[2,3-c]pyridin-5-yl]-2-pyridyl]-1,3-dimethyl-urea] |  |  |  |  |  |  |  | 
 | CCS(=O)(=O)c1cc(N(C)C(C)=O)cnc1-c1cc2cnn(CC(F)(F)C(F)(F)F)c2cn1 [Compound P2, N-[5-ethylsulfonyl-6-[1-(2,2,3,3,3-pentafluoropropyl)pyrazolo[3,4-c]pyridin-5-yl]-3-pyridyl]-N-methyl-acetamide] | ≥ 80 | ≥ 80 |  | ≥ 80 | ≥ 80 | ≥ 80 | ≥ 80 | 
 | CCS(=O)(=O)c1cc(C2(C#N)CC2)cnc1-c1cc2ncn(CC(F)(F)C(F)(F)F)c2cn1 [Compound P34, 1-[5-ethylsulfonyl-6-[3-(2,2,3,3,3-pentafluoropropyl)imidazo [4,5-c]pyridin-6-yl]-3-pyridyl]cyclopropane-carbonitrile] | ≥ 80 | ≥ 80 |  | ≥ 80 |  | ≥ 80 | ≥ 80 | 
 | CCS(=O)(=O)c1cc(C2(C#N)CC2)cnc1-c1cc2cnn(CC(F)(F)C(F)(F)F)c2cn1 [Compound P11, 1-[5-ethylsulfonyl-6-[1-(2,2,3,3,3-pentafluoropropyl)pyrazolo[3,4-c]pyridin-5-yl]-3-pyridyl]cyclopropanecarbonitrile] | ≥ 80 | ≥ 80 | ≥ 80 | ≥ 80 | ≥ 80 | ≥ 80 |  | ≥ 80
 | CCS(=O)(=O)c1ccc(N(C)C(C)=O)nc1-c1cc2cnn(CC(F)(F)C(F)(F)F)c2cn1 [Compound P12, N-[5-ethylsulfonyl-6-[1-(2,2,3,3,3-pentafluoropropyl)pyrazolo[3,4-c]pyridin-5-yl]-2-pyridyl]-N-methyl-acetamide] | ≥ 80 | ≥ 80 |  | ≥ 80 | ≥ 80 | ≥ 80 | ≥ 80 | 
 | CCSc1cc(C2(C#N)CC2)cnc1-c1cc2cnn(CC(F)(F)C(F)(F)F)c2cn1 [Compound P10, 1-[5-ethylsulfanyl-6-[1-(2,2,3,3,3-pentafluoropropyl)pyrazolo[3,4-c]pyridin-5-yl]-3-pyridyl]cyclopropanecarbonitrile] | ≥ 80 | ≥ 80 | ≥ 80 | ≥ 80 | ≥ 80 |  |  | 
 | CCS(=O)(=O)c1cc(C(C)(C)C#N)cnc1-c1cc2ncn(CC(F)(F)C(F)(F)F)c2cn1 [Compound P40, 2-[5-ethylsulfonyl-6-[3-(2,2,3,3,3-pentafluoropropyl)imidazo[4,5-c]pyridin-6-yl]-3-pyridyl]-2-methyl-propanenitrile] | ≥ 80 | ≥ 80 |  | ≥ 80 | ≥ 80 | ≥ 80 | ≥ 80 | 
 | CCS(=O)(=O)c1ccc(-c2ncccn2)nc1-c1cc2cnn(CC(F)(F)C(F)(F)F)c2cn1 [Compound P25, 5-(3-ethylsulfonyl-6-pyrimidin-2-yl-2-pyridyl)-1-(2,2,3,3,3-pentafluoropropyl) pyrazolo[3,4-c]pyridine] | ≥ 80 | ≥ 80 | ≥ 80 | ≥ 80 | ≥ 80 | ≥ 80 | ≥ 80 | 
 | CCSc1cc(C(C)(C)C#N)cnc1-c1cc2cnn(CC(F)(F)C(F)(F)F)c2cn1 [Compound P6, 2-[5-ethylsulfanyl-6-[1-(2,2,3,3,3-pentafluoropropyl)pyrazolo[3,4-c]pyridin-5-yl]-3-pyridyl]-2-methyl-propanenitrile] | ≥ 80 | ≥ 80 | ≥ 80 | ≥ 80 | ≥ 80 | ≥ 80 |  | ≥ 80
 | CCS(=O)(=O)c1cc(C(C)(C)C#N)cnc1-c1cc2cnn(CC(F)(F)C(F)(F)F)c2cn1 [Compound P5, 2-[5-ethylsulfonyl-6-[1-(2,2,3,3,3-pentafluoropropyl)pyrazolo[3,4-c]pyridin-5-yl]-3-pyridyl]-2-methyl-propanenitrile] | ≥ 80 | ≥ 80 |  | ≥ 80 | ≥ 80 | ≥ 80 | ≥ 80 | ≥ 80
 | CCS(=O)(=O)c1cc(C(F)(F)F)cnc1-c1cc2cnn(CC(F)(F)C(F)(F)F)c2cn1 [Compound P31, 5-[3-ethylsulfonyl-5-(trifluoromethyl)-2-pyridyl]-1-(2,2,3,3,3-pentafluoropropyl) pyrazolo[3,4-c] pyridine] | ≥ 80 | ≥ 80 |  | ≥ 80 | ≥ 80 |  |  | ≥ 80

Reference: US20220132852A1, “PESTICIDALLY ACTIVE HETEROCYCLIC DERIVATIVES WITH SULFUR CONTAINING SUBSTITUENTS” (SYNGENTA CROP PROTECTION AG, priority 2019, published 2022)
